{"source": "patent US20240199587A1", "about": "“HETEROCYCLIC COMPOUNDS” (Hoffmann-La Roche Inc., priority 2021, published 2024)"}
{"target": "T1, MAGL (Homo sapiens, UniProt Q99685)", "T1 sequence (Q99685 1-303)": "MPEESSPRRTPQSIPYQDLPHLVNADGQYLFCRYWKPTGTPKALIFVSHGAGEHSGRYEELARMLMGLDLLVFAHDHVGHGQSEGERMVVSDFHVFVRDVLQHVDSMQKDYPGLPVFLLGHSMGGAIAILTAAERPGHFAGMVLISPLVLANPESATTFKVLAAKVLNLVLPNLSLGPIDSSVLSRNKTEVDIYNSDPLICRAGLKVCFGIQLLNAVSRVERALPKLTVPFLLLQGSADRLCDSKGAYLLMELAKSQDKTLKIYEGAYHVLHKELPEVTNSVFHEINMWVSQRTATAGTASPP", "assay": "2-AG assay (MAGL inhibitory activity, hydrolysis of 2-arachidonoylglycerol to arachidonic acid followed by mass spectrometry)", "type": "biochemical", "details": "8 μM 2-arachidonoylglycerol, 15 min pre-incubation, 30 min incubation at RT, RapidFire MS readout", "procedure,_shortened": "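Human MAGL ([…] final) pre-incubated 15 min at RT with compound in 50 mM TRIS, 1 mM EDTA, 0.01% Tween-20, 2.5% DMSO; 8 μM 2-AG then added for 30 min at RT. Acetonitrile quench with d8-arachidonic acid; arachidonic acid measured by RapidFire SPE–MS/MS, activity from arachidonic acid/d8 ratio.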", "units": {"IC50": "nM"}}
{"smiles": "CS(=O)(=O)c1cc(O[C@H]2C[C@@H]3CN(C(=O)N4CC5(CC(n6cnc(C7CC7)n6)C5)C4)C[C@@H]3C2)ccc1F", "note": "[Example 130, [6-(3-cyclopropyl-1,2,4-triazol-1-yl)-2-azaspiro[3.3]heptan-2-yl]-[rac-(3aS,6aR)-5-(4-fluoro-3-methylsulfonyl-phenoxy)-3,3a,4,5,6,6a-hexahydro-1H-cyclopenta[c]pyrrol-2-yl]methanone]", "IC50": 47.6}
{"smiles": "COc1cc(O[C@H]2C[C@@H]3CN(C(=O)N4CC5(CC(n6cnc(C7CC7)n6)C5)C4)C[C@@H]3C2)ccc1F", "note": "[Example 131, [6-(3-cyclopropyl-1,2,4-triazol-1-yl)-2-azaspiro[3.3]heptan-2-yl]-[rac-(3aS,6aR)-5-(4-fluoro-3-methoxy-phenoxy)-3,3a,4,5,6,6a-hexahydro-1H-cyclopenta[c]pyrrol-2-yl]methanone]", "IC50": 5.9}
{"smiles": "O=C(N1C[C@H]2C[C@H](Oc3cc(C(F)(F)F)c(F)cc3F)C[C@H]2C1)N1CC2(CC(n3cnc(C4CC4)n3)C2)C1", "note": "[Example 132, [6-(3-cyclopropyl-1,2,4-triazol-1-yl)-2-azaspiro[3.3]heptan-2-yl]-[rac-(3aS,6aR)-5-[2,4-difluoro-5-(trifluoromethyl)phenoxy]-3,3a,4,5,6,6a-hexahydro-1H-cyclopenta[c]pyrrol-2-yl]methanone]", "IC50": 1.7}
{"smiles": "O=C(N1C[C@H]2C[C@H](Oc3ccc(F)c(OC(F)(F)F)c3)C[C@H]2C1)N1CC2(CC(n3cnc(C4CC4)n3)C2)C1", "note": "[Example 133, [6-(3-cyclopropyl-1,2,4-triazol-1-yl)-2-azaspiro[3.3]heptan-2-yl]-[rac-(3aS,6aR)-5-[4-fluoro-3-(trifluoromethoxy)phenoxy]-3,3a,4,5,6,6a-hexahydro-1H-cyclopenta[c]pyrrol-2-yl]methanone]", "IC50": 1.3}
{"smiles": "O=C(N1C[C@H]2C[C@H](Oc3ccc(OC(F)(F)F)cc3)C[C@H]2C1)N1CC2(CC(n3cnc(C4CC4)n3)C2)C1", "note": "[Example 134, [6-(3-cyclopropyl-1,2,4-triazol-1-yl)-2-azaspiro[3.3]heptan-2-yl]-[rac-(3aS,6aR)-5-[4-(trifluoromethoxy)phenoxy]-3,3a,4,5,6,6a-hexahydro-1H-cyclopenta[c]pyrrol-2-yl]methanone]", "IC50": 4.3}
{"smiles": "O=C(N1C[C@H]2C[C@H](Oc3ccc(OC(F)(F)F)c(F)c3)C[C@H]2C1)N1CC2(CC(n3cnc(C4CC4)n3)C2)C1", "note": "[Example 135, [6-(3-cyclopropyl-1,2,4-triazol-1-yl)-2-azaspiro[3.3]heptan-2-yl]-[rac-(3aS,6aR)-5-[3-fluoro-4-(trifluoromethoxy)phenoxy]-3,3a,4,5,6,6a-hexahydro-1H-cyclopenta[c]pyrrol-2-yl]methanone]", "IC50": 3.1}
{"smiles": "O=C(N1CC(OCc2cncc(C(F)(F)F)c2)C1)N1CC2(CC(n3cnc(C4CC4)n3)C2)C1", "note": "[Example 136, [6-(3-cyclopropyl-1,2,4-triazol-1-yl)-2-azaspiro[3.3]heptan-2-yl]-[3-[[5-(trifluoromethyl)-3-pyridyl]methoxy]azetidin-1-yl]methanone]", "IC50": 14}
{"smiles": "O=C(N1CC2(CC(OCC3(C(F)(F)F)CC3)C2)C1)N1CC2(CC(n3cnc(C4CC4)n3)C2)C1", "note": "[Example 137, [6-(3-cyclopropyl-1,2,4-triazol-1-yl)-2-azaspiro[3.3]heptan-2-yl]-[6-[[1-(trifluoromethyl)cyclo-propyl]methoxy]-2-azaspiro[3.3]heptan-2-yl]methanone]", "IC50": 4.5}
{"smiles": "CC1C(OCc2ccc(C(F)(F)F)cc2)CN1C(=O)N1CC2(CC(n3cnc(C4CC4)n3)C2)C1", "note": "(centres unmarked) [Example 138, [6-(3-cyclopropyl-1,2,4-triazol-1-yl)-2-azaspiro[3.3]heptan-2-yl]-[2-methyl-3-[[4-(trifluoromethyl)phenyl]methoxy]azetidin-1-yl]methanone]", "IC50": 0.8}
{"smiles": "O=C(N1CC(C#Cc2ccccc2C(F)F)C1)N1CC2(CC(n3cnc(C4CC4)c3)C2)C1", "note": "[Example 139, [6-(4-cyclopropylimidazol-1-yl)-2-azaspiro[3.3]heptan-2-yl]−[3-[2-[2-(difluoromethyl)phenyl]ethynyl]azetidin-1-yl]methanone]", "IC50": 11.5}
{"smiles": "O=C(N1CC(c2noc(C3(C(F)(F)F)CC3)n2)C1)N1CC2(CC(n3cnc(C4CC4)n3)C2)C1", "note": "[Example 140, [6-(3-cyclopropyl-1,2,4-triazol-1-yl)-2-azaspiro[3.3]heptan-2-yl]-[3-[5-[1-(trifluoromethyl)cyclo-propyl]-1,2,4-oxadiazol-3-yl]azetidin-1-yl]methanone]", "IC50": 61.7}
{"smiles": "O=C(N1CC(c2noc(C3(C(F)(F)F)CC3)n2)C1)N1CC2(CC(n3cnc(C4CC4)c3)C2)C1", "note": "[Example 141]", "IC50": 332}
{"smiles": "Cc1cc(C(=O)N2CC3(CC(n4cnc(C5CC5)c4)C3)C2)cnc1OCC1(C)CC1", "note": "[Example 142, [6-(4-cyclopropylimidazol-1-yl)-2-azaspiro[3.3]heptan-2-yl]−[5-methyl-6-[(1-methylcyclopropyl)methoxy]-3-pyridyl]methanone]", "IC50": 31.3}
{"smiles": "Cc1cc(C(=O)N2CC3(CC(n4cnc(C5CC5)n4)C3)C2)cnc1OCC1(C)CC1", "note": "[Example 143, [6-(3-cyclopropyl-1,2,4-triazol-1-yl)-2-azaspiro[3.3]heptan-2-yl]-[5-methyl-6-[(1-methylcyclopropyl)methoxy]-3-pyridyl]methanone]", "IC50": 53.2}
{"smiles": "O=C(N1CC(n2cc(OCC(F)(F)F)cn2)C1)N1CC2(CC(n3cnc(C4CC4)c3)C2)C1", "note": "[Example 144, [6-(4-cyclopropylimidazol-1-yl)-2-azaspiro[3.3]heptan-2-yl]-[3-[4-(2,2,2-trifluoroethoxy)pyrazol-1-yl]azetidin-1-yl]methanone]", "IC50": 602}
{"smiles": "O=C(N1CC(c2nnc(C3(C(F)(F)F)CC3)o2)C1)N1CC2(CC(n3cnc(C4CC4)n3)C2)C1", "note": "[Example 145, [6-(3-cyclopropyl-1,2,4-triazol-1-yl)-2-azaspiro[3.3]heptan-2-yl]-[3-[5-[1-(trifluoromethyl)cyclo-propyl]-1,3,4-oxadiazol-2-yl]azetidin-1-yl]methanone]", "IC50": 541}
{"smiles": "Cc1cnn(C2CC3(C2)CN(C(=O)c2ccc(-c4noc(C(C)(C)C)n4)cc2)C3)c1", "note": "[Example 146, [4-(5-tert-butyl-1,2,4-oxadiazol-3-yl)phenyl]−[6-(4-methylpyrazol-1-yl)-2-azaspiro[3.3]heptan-2-yl]methanone]", "IC50": 400}
{"smiles": "Cc1cnn(C2CC3(C2)CN(C(=O)c2cnc(OCC4(C(F)(F)F)CC4)c(C)c2)C3)c1", "note": "[Example 147, [6-(4-methylpyrazol-1-yl)-2-azaspiro[3.3]heptan-2-yl]-[5-methyl-6-[[1-(trifluoromethyl)cyclopropyl]methoxy]-3-pyridyl]methanone]", "IC50": 340}
{"smiles": "Cc1ccn(C2CC3(C2)CN(C(=O)c2ccc(-c4noc(C(C)(C)C)n4)cc2)C3)n1", "note": "[Example 148, [4-(5-tert-butyl-1,2,4-oxadiazol-3-yl)phenyl]-[6-(3-methylpyrazol-1-yl)-2-azaspiro[3.3]heptan-2-yl]methanone]", "IC50": 1410}
{"smiles": "O=C(N1CC2(CC(n3cnc(C4CC4)n3)C2)C1)N1CCC(OCC2(C(F)(F)F)CC2)C2(CC2)C1", "note": "(centres unmarked) [Example 149, [6-(3-cyclopropyl-1,2,4-triazol-1-yl)-2-azaspiro13.31heptan-2-yl]−[8-[[1-(trifluoromethyl)cyclopropyl]methoxy]-5-azaspiro[2.5]octan-5-yl]methanone]", "IC50": 441}
{"smiles": "O=C(N1CC2(CC(n3cnc(C4CC4)n3)C2)C1)N1CCC(OCC2(C(F)(F)F)CC2)C(F)(F)C1", "note": "(centres unmarked) [Example 150, [6-(3-cyclopropyl-1,2,4-triazol-1-yl)-2-azaspiro[3.3]heptan-2-yl]-[3,3-difluoro-4-[[1-(trifluoromethyl)cyclopropyl]methoxy]-1-piperidyl]methanone]", "IC50": 162}
{"smiles": "Cc1cc(C(=O)N2CC3(CC(n4ccc(C5CC5)n4)C3)C2)cnc1OCC1(C(F)(F)F)CC1", "note": "[Example 151, [6-(3-cyclopropylpyrazol-1-yl)-2-azaspiro[3.3]heptan-2-yl]-[5-methyl-6-[[1-(trifluoromethyl)cyclopropyl]methoxy]-3-pyridyl]methanone]", "IC50": 67.1}
{"smiles": "Cc1cc(C(=O)N2CC3(CC(n4ccc(C5CC5)n4)C3)C2)cnc1OC(C)(C)C(F)(F)F", "note": "[Example 152, [6-(3-cyclopropylpyrazol-1-yl)-2-azaspiro[3.3]heptan-2-yl]-[5-methyl-6-(2,2,2-trifluoro-1,1-dimethyl-ethoxy)-3-pyridyl]methanone]", "IC50": 312}
{"smiles": "O=C(c1cnc(OCC2(C(F)(F)F)CC2)c(C(F)(F)F)c1)N1CC2(CC(n3cnc(C4CC4)n3)C2)C1", "note": "[Example 153, [6-(3-cyclopropyl-1,2,4-triazol-1-yl)-2-azaspiro[3.3]heptan-2-yl]−[5-(trifluoromethyl)-6-[[1-(trifluoromethyl)cyclopropyl]methoxy]-3-pyridyl]methanone]", "IC50": 14.9}
{"smiles": "O=C(c1cnc(OCC2(C(F)(F)F)CC2)c(C2COC2)c1)N1CC2(CC(n3cnc(C4CC4)n3)C2)C1", "note": "[Example 154, [6-(3-cyclopropyl-1,2,4-triazol-1-yl)-2-azaspiro[3.3]heptan-2-yl]−[5-(oxetan-3-yl)-6-[[1-(trifluoromethyl)cyclopropyl]methoxy]-3-pyridyl]methanone]", "IC50": 10}
{"smiles": "O=C(N1CC2(CC(n3cnc(C4CC4)n3)C2)C1)C12CCC(COCC3(C(F)(F)F)CC3)(CC1)CC2", "note": "[Example 155, [6-(3-cyclopropyl-1,2,4-triazol-1-yl)-2-azaspiro[3.3]heptan-2-yl]−[4-[[1-(trifluoromethyl)cyclopropyl]methoxymethyl]-1-bicyclo[2.2.2]octanyl]methanone]", "IC50": 20.8}
